Laboratory results: ChEMBL document CHEMBL5046291, “Evodiamine-Inspired Topoisomerase-Histone Deacetylase Dual Inhibitors: Novel Orally Active Antitumor Agents for Leukemia Therapy” (J Med Chem, 2022)
Activity calls are given as the source filed them. No cut-off for these calls is given here.

Legend:
[1] = target: T1, DNA topoisomerase 1 (Homo sapiens) (UniProt P11387); assay: Inhibition of recombinant Top1 (unknown origin) assessed as inhibition of relaxation of supercoiled pBR322 plasmid DNA at 100 uM incubated for 15 mins by ethidium bromide staining based agarose gel electrophoresis analysis
T1 sequence (whole entry): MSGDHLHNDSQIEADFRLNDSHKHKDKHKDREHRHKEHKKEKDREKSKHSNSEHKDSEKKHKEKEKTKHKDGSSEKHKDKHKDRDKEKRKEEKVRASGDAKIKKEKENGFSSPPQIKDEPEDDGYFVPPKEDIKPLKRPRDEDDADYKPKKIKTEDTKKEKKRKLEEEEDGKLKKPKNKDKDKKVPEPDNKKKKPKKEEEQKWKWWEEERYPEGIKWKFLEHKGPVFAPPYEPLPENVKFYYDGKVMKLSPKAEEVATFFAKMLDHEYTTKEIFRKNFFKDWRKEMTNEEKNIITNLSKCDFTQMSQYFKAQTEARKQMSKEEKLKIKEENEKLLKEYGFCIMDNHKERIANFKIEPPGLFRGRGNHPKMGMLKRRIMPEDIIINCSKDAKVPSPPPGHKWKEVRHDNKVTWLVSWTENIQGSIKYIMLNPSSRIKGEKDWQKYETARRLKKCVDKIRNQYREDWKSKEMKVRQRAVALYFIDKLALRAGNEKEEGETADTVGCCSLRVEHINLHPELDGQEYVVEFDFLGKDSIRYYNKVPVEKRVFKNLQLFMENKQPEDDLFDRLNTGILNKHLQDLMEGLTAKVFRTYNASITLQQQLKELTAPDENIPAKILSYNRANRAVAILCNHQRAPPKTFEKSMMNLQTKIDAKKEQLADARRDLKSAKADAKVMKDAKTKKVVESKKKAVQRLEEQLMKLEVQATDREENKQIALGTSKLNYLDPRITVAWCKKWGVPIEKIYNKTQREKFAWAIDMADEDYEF

Histone deacetylase 1 = Histone deacetylase 1 (Homo sapiens, UniProt Q13547); assay: Inhibition of full-length recombinant human HDAC1 expressed in Baculovirus expression system using Ac-Leu-Gly-Lys(Ac)-AMC as substrate preincubated for 5 mins followed by substrate addition and further incubated for 30 mins by fluorescence based microtiter plate reader assay
Histone deacetylase 1, sequence (Q13547 whole entry): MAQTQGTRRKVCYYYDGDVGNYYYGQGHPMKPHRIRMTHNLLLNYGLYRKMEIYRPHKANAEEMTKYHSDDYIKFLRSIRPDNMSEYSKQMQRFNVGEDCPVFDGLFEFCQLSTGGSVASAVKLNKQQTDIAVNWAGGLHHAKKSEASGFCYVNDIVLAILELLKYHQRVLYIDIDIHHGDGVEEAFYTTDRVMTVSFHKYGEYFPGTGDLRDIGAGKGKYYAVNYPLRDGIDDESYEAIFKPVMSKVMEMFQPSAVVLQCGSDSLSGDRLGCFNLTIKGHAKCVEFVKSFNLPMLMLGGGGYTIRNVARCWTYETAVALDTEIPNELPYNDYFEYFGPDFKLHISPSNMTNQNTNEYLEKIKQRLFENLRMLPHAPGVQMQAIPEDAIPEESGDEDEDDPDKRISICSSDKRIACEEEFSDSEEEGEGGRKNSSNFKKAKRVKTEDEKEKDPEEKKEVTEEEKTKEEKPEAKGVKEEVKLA

MCF7 = assay: Antiproliferative activity against human MCF7 cells assessed as cell growth inhibition incubated for 8 hrs by CCK8 assay; type: functional, cell-based; conditions: MCF7, 8 h
A549 = assay: Antiproliferative activity against human A549 cells assessed as cell growth inhibition incubated for 8 hrs by CCK8 assay; type: functional, cell-based; conditions: A549, 8 h
HCT-116 = assay: Antiproliferative activity against human HCT-116 cells assessed as cell growth inhibition incubated for 8 hrs by CCK8 assay; type: functional, cell-based; conditions: HCT-116, 8 h
HepG2 = assay: Antiproliferative activity against human HepG2 cells assessed as cell growth inhibition incubated for 8 hrs by CCK8 assay; type: functional, cell-based; conditions: HepG2, 8 h
K562 = assay: Antiproliferative activity against human K562 cells assessed as cell growth inhibition incubated for 8 hrs by CCK8 assay; type: functional, cell-based; conditions: K562, 8 h
HEL = assay: Antiproliferative activity against HEL cells assessed as cell growth inhibition incubated for 8 hrs by CCK8 assay; type: functional, cell-based; conditions: Homo sapiens
[2] = target: DNA topoisomerase 2-alpha (Homo sapiens) (UniProt P11388); assay: Inhibition of recombinant Top2 (unknown origin) assessed as inhibition of relaxation of supercoiled pBR322 plasmid DNA at 50 uM incubated for 15 mins by ethidium bromide staining based agarose gel electrophoresis analysis
DNA topoisomerase 2-alpha (Homo sapiens), sequence (P11388 whole entry): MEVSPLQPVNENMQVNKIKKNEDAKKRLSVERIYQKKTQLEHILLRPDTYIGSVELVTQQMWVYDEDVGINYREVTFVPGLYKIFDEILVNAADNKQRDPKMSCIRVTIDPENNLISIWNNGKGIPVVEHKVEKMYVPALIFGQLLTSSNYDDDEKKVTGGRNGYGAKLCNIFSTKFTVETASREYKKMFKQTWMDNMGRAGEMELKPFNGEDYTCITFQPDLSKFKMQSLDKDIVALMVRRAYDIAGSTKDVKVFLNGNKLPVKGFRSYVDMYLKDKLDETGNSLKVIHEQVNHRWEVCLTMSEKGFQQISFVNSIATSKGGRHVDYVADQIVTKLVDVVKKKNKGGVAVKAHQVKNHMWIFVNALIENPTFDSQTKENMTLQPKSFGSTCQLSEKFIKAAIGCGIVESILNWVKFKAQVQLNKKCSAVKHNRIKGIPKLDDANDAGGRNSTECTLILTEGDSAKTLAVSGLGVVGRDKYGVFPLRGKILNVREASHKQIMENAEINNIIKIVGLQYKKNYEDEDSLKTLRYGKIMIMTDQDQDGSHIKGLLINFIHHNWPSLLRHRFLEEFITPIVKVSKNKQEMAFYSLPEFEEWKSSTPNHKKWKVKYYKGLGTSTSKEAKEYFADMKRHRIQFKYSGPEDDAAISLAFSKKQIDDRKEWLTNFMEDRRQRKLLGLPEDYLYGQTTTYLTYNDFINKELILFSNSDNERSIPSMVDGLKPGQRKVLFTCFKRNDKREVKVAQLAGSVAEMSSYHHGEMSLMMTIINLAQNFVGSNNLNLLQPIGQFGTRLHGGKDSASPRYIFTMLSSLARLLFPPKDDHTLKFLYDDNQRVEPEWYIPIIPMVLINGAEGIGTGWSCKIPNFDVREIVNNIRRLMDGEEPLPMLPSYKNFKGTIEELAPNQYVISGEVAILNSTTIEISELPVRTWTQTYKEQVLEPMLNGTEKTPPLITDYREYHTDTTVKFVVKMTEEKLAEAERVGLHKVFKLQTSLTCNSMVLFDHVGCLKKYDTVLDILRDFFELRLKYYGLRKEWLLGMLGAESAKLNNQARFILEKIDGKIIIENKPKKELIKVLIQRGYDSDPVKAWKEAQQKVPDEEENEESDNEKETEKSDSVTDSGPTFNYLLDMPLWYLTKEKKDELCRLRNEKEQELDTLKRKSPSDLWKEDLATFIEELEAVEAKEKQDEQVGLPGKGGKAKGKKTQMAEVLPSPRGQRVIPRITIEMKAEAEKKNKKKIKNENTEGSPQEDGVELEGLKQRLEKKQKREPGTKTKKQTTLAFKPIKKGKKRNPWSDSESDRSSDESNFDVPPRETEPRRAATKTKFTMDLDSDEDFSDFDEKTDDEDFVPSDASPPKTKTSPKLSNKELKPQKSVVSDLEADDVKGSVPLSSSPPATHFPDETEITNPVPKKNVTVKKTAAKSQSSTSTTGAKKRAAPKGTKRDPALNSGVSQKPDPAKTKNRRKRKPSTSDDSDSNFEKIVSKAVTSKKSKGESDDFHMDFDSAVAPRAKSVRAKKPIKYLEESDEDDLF

[3] = target: DNA topoisomerase 2-alpha (Homo sapiens) (UniProt P11388); assay: Inhibition of recombinant Top2 (unknown origin) assessed as inhibition of relaxation of supercoiled pBR322 plasmid DNA at 100 uM incubated for 15 mins by ethidium bromide staining based agarose gel electrophoresis analysis

CN1c2ccc(F)cc2C(=O)N2CCc3c([nH]c4ccc(OCCCCCC(=O)Nc5ccccc5N)cc34)C21 (stereo not drawn)
inhibition [1]: inactive
IC50 (Histone deacetylase 1): 320 nM
IC50 (MCF7): > 2000 nM
IC50 (A549): 720 nM
IC50 (HCT-116): > 2000 nM
IC50 (HepG2): > 2000 nM
IC50 (K562): 1200 nM
IC50 (HEL): 1100 nM

CN1c2ccc(F)cc2C(=O)N2CCc3c([nH]c4ccc(OCc5cccc(C(=O)NO)c5)cc34)C21 (stereo not drawn)
inhibition [1]: Active
inhibition [2]: Active
IC50 (Histone deacetylase 1): 1900 nM
IC50 (MCF7): > 2000 nM
IC50 (A549): > 2000 nM
IC50 (HCT-116): > 2000 nM
IC50 (HepG2): 1620 nM
IC50 (K562): > 2000 nM
IC50 (HEL): 580 nM
inhibition [3]: Active

CN1c2ccc(F)cc2C(=O)N2CCc3c([nH]c4ccc(OCCCCC(=O)Nc5ccccc5N)cc34)C21 (stereo not drawn)
inhibition [1]: inactive
IC50 (Histone deacetylase 1): 2100 nM
IC50 (MCF7): 1260 nM
IC50 (A549): 820 nM
IC50 (HCT-116): 600 nM
IC50 (HepG2): 1250 nM
IC50 (K562): > 2000 nM
IC50 (HEL): 720 nM

CN1c2ccc(F)cc2C(=O)N2CCc3c([nH]c4ccc(OCc5ccc(C(=O)NO)cc5)cc34)C21 (stereo not drawn)
inhibition [1]: inactive
inhibition [2]: Active
IC50 (Histone deacetylase 1): 32 nM
IC50 (MCF7): 160 nM
IC50 (A549): > 2000 nM
IC50 (HCT-116): 500 nM
IC50 (HepG2): 98 nM
IC50 (K562): 250 nM
IC50 (HEL): > 2000 nM
inhibition [3]: Active

CC[C@@]1(O)C(=O)OCc2c1cc1n(c2=O)Cc2cc3c(CN(C)C)c(O)ccc3nc2-1 [TOPOTECAN]
IC50 (MCF7): 140 nM
IC50 (A549): 8300 nM
IC50 (HCT-116): 970 nM
IC50 (HepG2): 3300 nM
IC50 (K562): 910 nM
IC50 (HEL): 26000 nM

CN1c2ccc(F)cc2C(=O)N2CCc3c([nH]c4ccc(OCCCCCC(=O)NO)cc34)C21 (stereo not drawn)
inhibition [1]: inactive
inhibition [2]: Active
IC50 (Histone deacetylase 1): 4 nM
IC50 (MCF7): 150 nM
IC50 (A549): 300 nM
IC50 (HCT-116): 120 nM
IC50 (HepG2): 210 nM
IC50 (K562): 670 nM
IC50 (HEL): 100 nM
inhibition [3]: Active

CN1c2ccc(F)cc2C(=O)N2CCc3c([nH]c4ccc(OCCCCCCCC(=O)NO)cc34)C21 (stereo not drawn)
inhibition [1]: Active
IC50 (Histone deacetylase 1): 150 nM
IC50 (MCF7): > 2000 nM
IC50 (A549): 1580 nM
IC50 (HCT-116): > 2000 nM
IC50 (HepG2): > 2000 nM
IC50 (K562): > 2000 nM
IC50 (HEL): 1580 nM
inhibition [3]: inactive

CN1c2ccc(F)cc2C(=O)N2CCc3c([nH]c4ccc(OCCCCC(=O)NO)cc34)C21 (stereo not drawn)
inhibition [1]: inactive
inhibition [2]: Active
IC50 (Histone deacetylase 1): 21 nM
IC50 (MCF7): 1560 nM
IC50 (A549): 330 nM
IC50 (HCT-116): > 2000 nM
IC50 (HepG2): 810 nM
IC50 (K562): 410 nM
IC50 (HEL): 580 nM
inhibition [3]: Active

CN1c2ccc(F)cc2C(=O)N2CCc3c([nH]c4ccc(OCc5cccc(C(=O)Nc6ccccc6N)c5)cc34)C21 (stereo not drawn)
inhibition [1]: inactive
IC50 (Histone deacetylase 1): 3600 nM
IC50 (MCF7): > 2000 nM
IC50 (A549): 1320 nM
IC50 (HCT-116): > 2000 nM
IC50 (HepG2): 420 nM
IC50 (K562): 1380 nM
IC50 (HEL): 660 nM

CN1c2ccc(F)cc2C(=O)N2CCc3c([nH]c4ccc(OCc5ccc(C(=O)Nc6ccccc6N)cc5)cc34)C21 (stereo not drawn)
inhibition [1]: Active
IC50 (Histone deacetylase 1): 31 nM
IC50 (MCF7): 1910 nM
IC50 (A549): > 2000 nM
IC50 (HCT-116): > 2000 nM
IC50 (HepG2): 125000 nM
IC50 (K562): 250 nM
IC50 (HEL): 44 nM

CN1c2ccc(F)cc2C(=O)N2CCc3c([nH]c4ccc(OCCCCCCC(=O)NO)cc34)C21 (stereo not drawn)
inhibition [1]: Active
inhibition [2]: Active
IC50 (Histone deacetylase 1): 3 nM
IC50 (MCF7): 210 nM
IC50 (A549): 630 nM
IC50 (HCT-116): 830 nM
IC50 (HepG2): 200 nM
IC50 (K562): > 2000 nM
IC50 (HEL): > 2000 nM
inhibition [3]: Active

CN1c2ccc(F)cc2C(=O)N2CCc3c([nH]c4ccc(OCCCC(=O)NO)cc34)C21 (stereo not drawn)
inhibition [1]: Active
inhibition [2]: Active
IC50 (Histone deacetylase 1): 2200 nM
IC50 (MCF7): 1230 nM
IC50 (A549): > 2000 nM
IC50 (HCT-116): > 2000 nM
IC50 (HepG2): > 2000 nM
IC50 (K562): 550 nM
IC50 (HEL): 270 nM
inhibition [3]: Active

CN1c2ccc(F)cc2C(=O)N2CCc3c([nH]c4ccc(OCc5ccccc5C(=O)Nc5ccccc5N)cc34)C21 (stereo not drawn)
inhibition [1]: inactive
IC50 (Histone deacetylase 1): 1900 nM
IC50 (MCF7): 420 nM
IC50 (A549): 830 nM
IC50 (HCT-116): 220 nM
IC50 (HepG2): 440 nM
IC50 (K562): 920 nM
IC50 (HEL): 820 nM

CN1c2ccc(F)cc2C(=O)N2CCc3c([nH]c4ccc(OCc5ccc(CC(=O)NO)cc5)cc34)C21 (stereo not drawn)
inhibition [1]: Active
inhibition [2]: Active
IC50 (Histone deacetylase 1): 360 nM
IC50 (MCF7): > 2000 nM
IC50 (A549): > 2000 nM
IC50 (HCT-116): > 2000 nM
IC50 (HepG2): 520 nM
IC50 (K562): 180 nM
IC50 (HEL): 100 nM
inhibition [3]: Active

CN1c2ccc(F)cc2C(=O)N2CCc3c([nH]c4ccc(OCCCC(=O)Nc5ccccc5N)cc34)C21 (stereo not drawn)
inhibition [1]: inactive
IC50 (Histone deacetylase 1): 2200 nM
IC50 (MCF7): 52000 nM
IC50 (A549): 1250 nM
IC50 (HCT-116): 1030 nM
IC50 (HepG2): 160 nM
IC50 (K562): 280 nM
IC50 (HEL): 350 nM

CN1c2ccc(F)cc2C(=O)N2CCc3c([nH]c4ccc(OCCCCCCC(=O)Nc5ccccc5N)cc34)C21 (stereo not drawn)
inhibition [1]: Active
inhibition [2]: Active
IC50 (Histone deacetylase 1): 25 nM
IC50 (MCF7): 830 nM
IC50 (A549): 810 nM
IC50 (HCT-116): > 2000 nM
IC50 (HepG2): 1260 nM
IC50 (K562): 1380 nM
IC50 (HEL): 1850 nM
inhibition [3]: Active

CN1c2ccc(F)cc2C(=O)N2CCc3c([nH]c4ccc(OCc5ccccc5C(=O)NO)cc34)C21 (stereo not drawn)
inhibition [1]: Active
inhibition [2]: Active
IC50 (Histone deacetylase 1): 6100 nM
IC50 (MCF7): 800 nM
IC50 (A549): 1210 nM
IC50 (HCT-116): 150 nM
IC50 (HepG2): 120 nM
IC50 (K562): 86 nM
IC50 (HEL): 290 nM
inhibition [3]: Active
